Structures are written as SMILES. Positions count from the first letter of the chain named. Square brackets hold non-standard residues; d marks the D form. Peptide text beside a SMILES is read from it. * marks the point of attachment. Biotin = O=C1N[C@H]2[C@H](CS[C@H]2CCCCC(=O)*)N1; pT = C[C@@H](OP(=O)(O)O)[C@H](N)C(=O)O; Nle = CCCC[C@H](N)C(=O)O

In one assay the target is T1, Mad1 597–718 (Homo sapiens, UniProt Q9Y6D9).
T1 construct: His (N); Strep (N); made in house; host or cells: E. coli BL21(DE3)
T1 sequence (Q9Y6D9 597-718): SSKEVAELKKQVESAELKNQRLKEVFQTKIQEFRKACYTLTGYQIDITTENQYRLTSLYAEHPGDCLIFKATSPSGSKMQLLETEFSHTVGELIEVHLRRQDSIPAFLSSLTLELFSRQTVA
The assay can be described thus: SPR, binding of CD1 peptides to Mad1 597–718 (steady-state affinity). The note with it: ratio of Kd, SPR, Mad1 597–718. The source says: (§1) To further investigate a possible direct interaction between Mad1 and CD1, we used surface plasmon resonance technology. […] To achieve a more efficient synthesis of CD1 peptides and in particularly of the phosphorylated peptides we used norleucine (Nle) instead of methionine (Met) but we cannot exclude that Mad1 will have a different affinity for peptides containing methionine. […] Given that Ser459 and Thr461 phosphorylation was critical for Bub1 functionality in vivo we tested if they affected Mad1 597–718 binding. […] As the Mad1 RLK motif is required for binding Bub1 in budding yeast in vivo[39], we tested whether this motif was required for direct binding to CD1 phosphorylated on Thr461. […] We furthermore analysed the binding of Mad1 597–718 to CD1 peptides harboring the Ile471Asp and […] (residues 474–476) mutations with Thr461 being phosphorylated.
Figure 4 Direct binding of Mad1 to CD1 peptide. (a) SPR steady-state responses for control, WT, pS459, pT461, pS459/pT461, I471D, MFQ/RKK and control Bub1 CD1 peptides to purified Mad1 597–718 protein. The biotinylated peptides were captured on a streptavidin-coated CM5 chip and increasing concentrations of Mad1 were subsequently added for binding assessment. Empty symbols represent experimental data points from two technical replicates using the same chip. An additional independent experiment with two replicates has been performed giving in all cases consistent results. The equilibrium dissociation constants, KD, were calculated using a steady-state affinity model and the lines represent the best fit to the model. […] (b) Similar to a, SPR steady-state responses for pT461 peptide with purified Mad1 597–718 or Mad1 597–718 RLK/AAA or the Mad1 485–718/Mad2 complex. (c) Sequence and summary of the affinity of CD1 peptides for Mad1 597–718 as determined by SPR.
Bub1 peptides were purchased from Biosyntan Gmbh (Germany). The purity obtained in the synthesis was 95–98% as determined by high-performance liquid chromatography (HPLC) and the identity of the peptides was confirmed by mass spectrometry. SPR experiments were performed on a Biacore T200 (GE Healthcare) at 25 °C. Streptavidin (ThermoFisher Scientific) at 0.05 mg ml^−1 in 10 mM sodium acetate, pH 4.5, was directly immobilized on a CM5 sensor chip (GE Healthcare) by standard amine coupling chemistry with N-hydroxysuccinimide and N-ethly-N′-(3-dimethlyaminopropyl)carbodiimide up to an immobilization level of approximately 2000 RU. Unreacted sites were quenched with ethanolamine HCl. Subsequently, N-terminal biotinylated Bub1 peptides (at 10 nM in HBS-EP+ buffer and flow rate 5 μl min^−1) were captured at ∼50 RU, respectively, in channels 2, 3 and 4 of the streptavidin coated chip, leaving channel 1 free for reference. An identical approach was used to prepare a second CM5 chip with the negative controls. In this case, a N-terminal biotinylated 5A mutant, a non-related phosphorylated peptide and the Bub1 pT461 peptide were captured, respectively, in channels 2, 3 and 4. HBS-EP+ (10 mM Hepes, pH 7.4, 150 mM NaCl, 3 mM EDTA, 0.05% (v/v) Surfactant P20) was used as running buffer for both streptavidin immobilization and peptide capture. […] Sensorgrams were analysed after double referencing. […]

The target of the next assay is T2, Mad1 597–718 RLK/AAA (Homo sapiens, UniProt Q9Y6D9, K619A/L618A/R617A).
T2 construct: His; Strep; made in house; host or cells: E. coli BL21(DE3) (stated for the wild-type construct)
T2 sequence (Q9Y6D9 597-718 R617A/L618A/K619A limits assumed): T1 sequence (Q9Y6D9 597-718) with R21A, L22A, K23A
The assay can be described thus: SPR, binding of CD1 peptide to Mad1 597–718 RLK/AAA. The settings on record: Mad1 597–718 RLK/AAA injected up to 250 μM, 25 °C.
Excerpt: as §1
Figure 4 Direct binding of Mad1 to CD1 peptide. […] The equilibrium dissociation constants, KD, were calculated using a steady-state affinity model and the lines represent the best fit to the model. […] (c) Sequence and summary of the affinity of CD1 peptides for Mad1 597–718 as determined by SPR.
Bub1 peptides were purchased from Biosyntan Gmbh (Germany). The purity obtained in the synthesis was 95–98% as determined by high-performance liquid chromatography (HPLC) and the identity of the peptides was confirmed by mass spectrometry. […]
(Surface plasmon resonance follows binding to a sensor surface in real time, without labels.)

As to `CCCC[C@H](NC(=O)[C@H](CC(N)=O)NC(=O)[C@H](CCCC)NC(=O)[C@@H](NC(=O)[C@H](Cc1ccccc1)NC(=O)CNC(=O)[C@H](CC(C)C)NC(=O)[C@H](C)NC(=O)[C@H](CCC(=O)O)NC(=O)[C@H](CCCCN)NC(=O)[C@@H](NC(=O)[C@H](Cc1c[nH]cn1)NC(=O)[C@@H](NC(=O)[C@@H](NC(=O)[C@@H]1CCCN1C(=O)[C@H](CO)NC(=O)[C@@H]1CCCN1C(=O)[C@H](CCC(N)=O)NC(=O)[C@@H](NC(=O)[C@H](CCCCN)NC(=O)[C@H](CO)NC(=O)[C@@H]1CCCN1C(=O)[C@@H](NC(=O)[C@H](C)NC(=O)[C@H](CCC(N)=O)NC(=O)[C@@H](NC(=O)CCCC[C@@H]1SC[C@@H]2NC(=O)N[C@@H]21)C(C)C)[C@@H](C)O)C(C)C)[C@@H](C)OP(=O)(O)O)C(C)C)[C@@H](C)O)[C@@H](C)CC)C(=O)N[C@@H](Cc1ccccc1)C(=O)N[C@@H](CCC(N)=O)C(=O)N[C@@H](C)C(=O)N1CCC[C@H]1C(=O)N[C@H](C(=O)N[C@@H](CC(C)C)C(=O)N[C@@H](Cc1c[nH]c2ccccc12)C(=O)O)[C@@H](C)O` [CD1 pT461] (Biotin-VQATPSKVQPSP[pT]VHTKEALGFI[Nle]N[Nle]FQAPTLW-OH; C-terminus assumed), the “stronger binding to Mad1 than unphosphorylated CD1 peptide” value on Mad1 597–718 amounted to 10 fold. For the same compound, the binding result at Mad1 597–718 RLK/AAA was “no binding”.
